Data: paper PMC11002875, “Linking triphenylphosphonium cation to a bicyclic hydroquinone improves their antiplatelet effect via the regulation of mitochondrial function” (Redox Biology, 2024)

Tests used:
Format in all cases: cell-based, Human
Washed platelets [1] = experiment: Platelet activation markers in washed platelets (flow cytometry); details: collagen 2 μg/mL; compounds 1, 5 and 10 μM; vs activated control
Procedure: (§1) Human platelet purification. The blood sample was obtained from voluntary donors (10 days without antiplatelet medication) who agreed to participate after signing informed consent (Scientific Ethics Committee of the University of Talca N° 04–2022). Briefly, blood anticoagulated with acid-citrate-dextrose (ACD) was obtained in a 4:1 v/v ratio. The sample was centrifuged for 12 min at 250 g to obtain platelet-rich plasma (PRP). Subsequently, the PRP was centrifuged for 8 min at 900 g to obtain the platelet pellet. The plasma supernatant was removed, and the platelets were resuspended in Tyrodes buffer without calcium plus ACD in a ratio of 5:1 v/v. The platelets were centrifuged once more for 8 min at 900 g and the pellet was resuspended in Tyrodes buffer without calcium. Finally, the platelets were counted (Mindray BC-3000 Plus hematology counter, Japan), adjusted to the desired concentration, and used within 3 h.
Platelet activation markers. Washed platelets (200-250 × 10^6 platelets/mL) were incubated with the compounds (1, 5 and 10 μM), then activated with collagen 2 μg/mL and incubated for 5 min at 37 °C. Aliquots of the reaction were then collected and labeled separately with human antibodies (BD Biosciences, San José, CA, USA) for P-selectin, CD63, activated GPIIb/IIIa (PAC-1), and fibrinogen to assess the levels of each marker on the platelet membrane. The sample was acquired using the BD Facs Lyric flow cytometer (BD Biosciences, USA). Representative dot plots are available in Supplementary Figures 8-11 and 20-23. In the case of the activation markers P-selectin and bound fibrinogen in PRP, the same procedure for washed platelets was performed with representative dot plots available in Supplementary Figs. 15 and 16. The platelet population was identified with anti-CD61-PE or anti-CD61-FITC (BD Biosciences, San José, CA, USA).

Washed platelets [2] = experiment: Intraplatelet calcium levels (Fluo-4-AM); details: compounds 1, 5 and 10 μM, 10 min
Procedure: as §1
Intraplatelet calcium levels. Washed platelets (200-250 × 10^6 platelets/mL) were labeled Fluo-4-AM probe with 0.5 μM and incubated for 20 min at room temperature protected from light. Subsequently, platelets were adjusted to a count of 50 × 10^6 platelets/mL, and compounds (1, 5, and 10 μM) were added and incubated for 10 min at 37 °C. The sample was acquired in the BD Facs Lyric flow cytometer (BD Biosciences, USA). Representative dot plots are available in Supplementary Figs. 13 and 26. As a control for increased intracellular calcium, P-trifluoromethoxyphenylhydrazone carbonylcyanide (FCCP) 1 μM was used.

Washed platelets [3] = experiment: Cellular apoptosis (externalization of phosphatidylserine, annexin V); details: 1, 2, 5, 10 and 20 μM; 15 min
Procedure: as §1
Cellular apoptosis (externalization of phosphatidylserine). Washed platelets (200-250 × 10^6 platelets/mL) were incubated with the NP4 compound (1, 2, 5, 10 and 20 μM) for 15 min at 37 °C. Then 15 μL of the reaction was mixed with 25 μL of annexin V binding buffer (1x) and labeled with 2 μL of annexin V FITC (BD Pharmingen, FITC Annexin V Apoptosis Detection Kit I). […]

platelet-rich plasma = experiment: Platelet activation markers in PRP (flow cytometry); details: collagen 2 μg/mL
Procedure: Platelet aggregation in platelet-rich plasma. The blood sample was obtained from voluntary donors (10 days without antiplatelet medication) who agreed to participate after signing informed consent (Scientific Ethics Committee of the University of Talca N° 04–2022). Venous blood was collected by phlebotomy into 3.2% sodium citrate tubes. The tubes were centrifuged at 250 g for 12 min to obtain PRP. After reserving the PRP, the tubes were centrifuged again at 900 g for 10 min to obtain platelet-poor plasma (PPP). For the aggregation reaction, PRP was adjusted to 200-250 × 10^6 platelets/mL with PPP [[63], [64], [65]]. Platelet counting was performed in a counter (Mindray BC-3000 Plus hematology counter, Japan). The samples were preincubated with the compounds under study for 5 min at 37 °C in the aggregometer (Agg RAM- Helena Biosciences). Aggregation was initiated with collagen 2 μg/mL and the reaction was evaluated for 5 min at 37 °C in shaking at 1000 rpm.
Platelet activation markers. […] Aliquots of the reaction were then collected and labeled separately with human antibodies (BD Biosciences, San José, CA, USA) for P-selectin, CD63, activated GPIIb/IIIa (PAC-1), and fibrinogen to assess the levels of each marker on the platelet membrane. The sample was acquired using the BD Facs Lyric flow cytometer (BD Biosciences, USA). […]

Washed platelets [4] = experiment: Cell viability by Calcein-AM (flow cytometry); details: 1, 2, 5, 10 and 20 μM; 15 min
Procedure: as §1
Cell viability by Calcein-AM. Washed platelets (200-250 × 10^6 platelets/mL) were labeled with 0.1 μM Calcein-AM and incubated for 15 min at 37 °C protected from light. […] Viability was analyzed on the BD Facs Lyric Flow Cytometer (BD Biosciences, USA). The percentage of Calcein-negative platelets (without fluorescence) in the CD61-PE-positive subpopulation (BD Biosciences, San José, CA, USA) was identified as non-viable platelets. […]

Washed platelets [5] = experiment: Mitochondrial membrane potential (TMRM); details: compounds 1, 5 and 10 μM, 20 min
Procedure: as §1
Mitochondrial membrane potential (ΔΨm). Washed platelets (50 × 10^6 platelets/mL) were labeled with a 100 nM tetramethylrhodamine methyl ester (TMRM) probe and incubated with compounds (1, 5 and 10 μM) for 20 min at 37 °C. The sample was acquired in the BD Facs Lyric flow cytometer (BD Biosciences, USA). Representative dot plots are available in Supplementary Figs. 12, 24, and 25. Carbonyl cyanide 4-(trifluoromethoxy) phenylhydrazone (FCCP) 1 μM was used as a control for decreasing the mitochondrial membrane potential.

Cc1c(C)c(O)c2c(c1O)C(=O)C(CCCC[P+](c1ccccc1)(c1ccccc1)c1ccccc1)=CC2(C)C.[Br-] [NP4, (4-(5,8-dihydroxy-4,4,6,7-tetramethyl-1-oxo-1,4-dihydronaphthalen-2-yl)butyl)triphenyl phosphonium bromide]
Bound fibrinogen platelet activation marker (Washed platelets [1]): at the 10 μM concentration was able to significantly decrease
CD63 platelet activation marker (Washed platelets [1]): at the 10 μM concentration was able to significantly decrease
P-selectin platelet activation marker (Washed platelets [1]): at the 10 μM concentration was able to significantly decrease
PAC-1 (activated GPIIb/IIIa) platelet activation marker (Washed platelets [1]): at the 10 μM concentration was able to significantly decrease
Intraplatelet calcium levels (Washed platelets [2]): increase it significantly
Apoptosis (phosphatidylserine externalization) (Washed platelets [3]): none of the concentrations evaluated for NP4 showed significant effects
Bound fibrinogen in platelet-rich plasma (platelet-rich plasma): significant decrease
P-selectin exposure in platelet-rich plasma (platelet-rich plasma): significant decrease
Platelet viability (Calcein-AM negative platelets) (Washed platelets [4]): none of the concentrations evaluated for NP4 showed significant effects
Mitochondrial membrane potential (ΔΨm) (Washed platelets [5]): significantly decrease
